For series [1], the system named is NFkB pathway. Put plainly: NFkB expression in Jurkat-Dual reporter cells, luciferase (IL-10 mimetic peptides). It counts as cell-based. The note with it: for concentrations with statistically significant decrease of NFKB activation: peptide pretreatment 1 hour, then TNF-α 200 ng/ml. The procedure:
(§1) In order to investigate the ability of synthetic peptides with affinity to the Interleukin-10 receptor to interfere in the NFkB, IFN and TLR4 pathways, reporter cell lines were used. To analyze whether the isolated peptides (without activation molecules) could induce any type of activation, the isolated peptides were tested in cell lines during 12, 24 and 48 hours of treatment. […] As an example, FIG. 13A, FIG. 13B, and FIG. 13C show an analysis of NFkB expression after stimulation with the synthesized IL-10 receptor affinity synthetic peptides described herein. Cells were treated for 12, 24 and 48 hours with the synthesized peptides Pep 1-IL10, Pep 2-IL10, Pep 3-IL10 and Pep 4-IL10, at different concentrations, without activating molecules. Luciferase was then measured after 12 hours of treatment (FIG. 13A), 24 hours of treatment (FIG. 13B) and 48 hours of treatment (FIG. 13C). […] TNF-α (200 ng/mL) was used as a positive control.
The assay was then carried out using TNF-α as activation molecule not only in the control, but after a pretreatment with the synthesized peptides Pep 1-IL10, Pep 2-IL10, Pep 3-IL10 and Pep 4-IL10, at different concentrations. All peptides were able to modulate NFKB activation after 12, 24 and 48 hours, with different results depending on the concentrations used. […] In the assays shown by FIGS. 14 A, B and C, analysis of NFkB expression was performed in Jurkat-Dual reporter cells. Cells were treated for 1 hour with peptides and TNF-α (200 ng/ml) added. Luciferase was measured after 12 hours of treatment (FIG. 14A), 24 hours of treatment (FIG. 14B) and 48 hours of treatment (FIG. 14C).
Another assay was then performed in which cells were pretreated with TNF-α and the synthesized peptides Pep 1-IL10, Pep 2-IL10, Pep 3-IL10 and Pep 4-IL10, at different concentrations, were added later. All peptides were able to modulate NFKB activation after 12, 24 and 48 hours, with different results depending on the concentrations used. The most significant results will be described below. […] After 48 hours of treatment, Pep 1-IL-10 at a concentration of 0.001 μM (P<0.05) was the one that obtained a result with the highest statistical significance in the decrease of NFKB signaling (FIG. 15C). In the assays shown by FIGS. 15 A, B and C, analysis of NFkB expression was performed in Jurkat-Dual reporter cells. Cells were treated for 1 hour with TNF-α (200 ng/ml) and peptides were added. Luciferase was measured after 12 hours of treatment (FIG. 15A), 24 hours of treatment (FIG. 15B) and 48 hours of treatment (FIG. 15C). TNF-α (200 ng/mL) was used as a positive control and rlL-10 (recombinant Interleukin-10) (0.4 ng/mL) as a negative control. *P<0.05; **P<0.005; ***P<0.0005.

Series [2] deals with rat basophilic leukemia cells transfected with the human FIϵRI IgE receptor (hRBL). Put plainly: IgE-mediated release in hRBL cells sensitized with serum from patients allergic to birch pollen, Bet v 1. The note with it: Pep 1-IL-10 at 1 μM; serum from seven birch pollen allergic donors. The series is classed as cell-based. The protocol: The effect of IL-10 mimetic peptides on IgE-mediated release was examined using rat basophilic leukemia cells transfected with the human FIϵRI IgE receptor (hRBL). As an example, we selected as an example Pep 1-IL-10 to show the data obtained. The hRBL cells were sensitized with serum from seven patients allergic to birch pollen. Cells were stimulated with the antigen and its interaction with immobilized IgEs caused a release of b-hexosaminidase.
When cells were treated with a composition comprising Pep 1-IL-10 at 1 μM (FIG. 21A) or rIL10 (FIG. 21B), the amount of Bet v 1 needed to induce the same amount of degranulation was higher when compared to cells treated only with Bet vl (P<0.05). Amount of rBet v 1 (ng/mL) required to induce half the release of b-hexosaminidase using serum from seven birch pollen allergic donors after treatment with Pep 1-IL-10 (A) (P<0.05) and rIL10 (B)*P<0.05.

In series [3] the test system is J774 cell line. Put plainly: cytokine production after treatment of the J774 cell line. The series is classed as cell-based. The protocol: After 24 hours of treatment, the levels of IL-6, MCP-1 and TNF-α produced were measured.
Decreases were significant compared to cells treated with LPS alone (positive control). *P<0.05; **P<0.005; ***P<0.0005.

Series [4] can be described thus: aggregation behavior in solution by Dynamic Light Scattering (DLS). The series is classed as physicochemical. Conditions: IL-10 mimetic peptides in solution.
The test system of series [5] is IFN signaling pathway. As to the kind of experiment: IFN signaling pathway in Jurkat-Dual reporter cells, SEAP production. The series is classed as cell-based. The note with it: after 12, 24 and 48 hours; results depend on concentration. The procedure: as §1
The most significant results will be described below. […] When cells were pretreated with IFN, although peptides at some concentrations indicated results, they were not statistically sufficient. Therefore, we cannot confirm whether they were able to interfere with pathway activation (FIGS. 17 A, B and C) in an equal or better way than the negative control (rIL-10). In the assays shown by FIGS. 16 (A, B and C) and FIGS. 17 (A, B and C), analysis of IFN expression was performed in Jurkat-Dual reporter cells. In the assays shown by FIGS. 16 A, B and C, cells were treated for 1 hour with peptides with further addition of IFN-α (104 EU/ml). Secreted Embryonic Alkaline Phosphatase (SEAP) production was measured after 12 hours of treatment (FIG. 16A), 24 hours of treatment (FIG. 16 B) and 48 hours of treatment (FIG. 16 C). In the assays shown by FIGS. 17A, B and C, cells were treated for 1 hour with IFN-α (104 EU/ml) with further addition of the peptides. SEAP production was measured after (A) 12 hours of treatment (B), 24 hours of treatment and (C) 48 hours of treatment. IFN-α (104 EU/ml) was used as a positive control and rlL-10 (0.4 ng/ml) as a negative control. *P<0.05.

The test system of series [6] is Jurkat cells. Put plainly: cytokine secretion in MMA-stimulated Jurkat cells. The series is classed as cell-based, human.
Series [7] deals with IL-8 gene expression. As to the kind of experiment: luciferase reporter under control of the IL-8 promoter in TNF-α stimulated A549 cells. It counts as cell-based, human. The source says:
First, we tested the ability of the synthesized peptides to recognize TGF^RII on the surface of Jurkat cells, immortalized human T lymphocytes, using ELISA. The recombinant TGFβ (rTGFβ1) was used as a positive control. […] To investigate IL-8 cytokine production, we used an immortalized human lung epithelial cell line (A549), which plays an important role in the first defense line to foreign compounds. […] A mediator release assay, based on rat basophilic leukemia (RBL) cells bearing humanized FIERI receptor, was performed to investigate the effect of the synthesized peptides on IgE-mediated degranulation of basophils in an already sensitized system. This sensitive cell-based assay may help to understand the action of the mimetic peptide in an established allergic microenvironment.

[8] abbreviates: peptide followed by LPS, 24 hours.

Bridges are numbered along the chain shown (N, C = ends). Where no end group is shown, it is not given here.

As for “Pep 1-IL-10: synthetic peptide with affinity to the Interleukin-10 receptor, SEQ ID 09, with disulfide bridges (HACSAVIKSSCGGGS; disulfide 3-11 (inferred))”, in series [1] (cells pretreated 1 hour with TNF-α 200 ng/ml, peptides added, 48 hours), the “concentration with highest statistical significance in the decrease of NFKB signaling” value came to 0.001 µM. Also, the “concentrations with statistically significant decrease of NFKB activation” value in series [1] (12 hours) is recorded as “all concentrations tested”. Also, the “concentrations with statistically significant decrease of NFKB activation” value in series [1] (24 hours) is listed as “all concentrations tested”. Moreover, the “concentrations with statistically significant decrease of NFKB activation” value in series [1] (48 hours) is listed as “all concentrations tested”. Further, the “induction of NFkB expression by peptides alone” value in series [1] (without activating molecules, 12, 24 and 48 hours, different concentrations) was “not able to induce any response”. Besides, the “amount of Bet v 1 needed to induce the same amount of degranulation (half the release of b-hexosaminidase) vs Bet v 1 only” value in series [2] is “higher”. Also, in series [3] (24 hours of treatment), the “production of IL-10, IFN-g or IL12p70” value is “No interference”. Also, the “production of IL-6, MCP-1 and TNF-α” value in series [3] (peptide followed by LPS for 24 hours) was “able to decrease”. In addition, in series [3] (setting [8]), the “concentrations that significantly reduced IL-6 levels vs LPS alone” value was 1 μM, 10 μM and 100 μM; the “concentrations that significantly reduced MCP-1 levels vs LPS alone” value is 1 µM and 10 µM; the “concentrations that significantly reduced TNF-α levels vs LPS alone” value is 1 μM, 10 μM and 100 μM. In addition, the “cytokine response to peptide alone” value in series [3] (without LPS stimulation, 24 hours) is “unable to induce any response”. The molecule further showed a measured hydrodynamic radius in series [4] of 0.82 nm. The “modulation of the activation of the IFN signaling pathway” value in series [5] is “able to modulate the activation of the IFN signaling pathway”.
On to “rTGFβ: recombinant TGFβ (rTGFβ1) used as a positive control”, for which, in series [6], the IL-10 secretion result is “increased IL-10 secretion” and the TNF-α secretion result is recorded as “significantly decreased TNF-α secretion”. In addition, the “IL-8 gene expression (luciferase reporter)” value in series [7] is listed as “decreased IL-8 gene expression”.

B1: rIL10: recombinant Interleukin-10, used as control (protein, UniProt P22301 19-178, looked up)
Interleukin-10: SPGQGTQSENSCTHFPGNLPNMLRDLRDAFSRVKTFFQMKDQLDNLLLKESLLEDFKGYLGCQALSEMIQFYLEEVMPQAENQDPDIKAHVNSLGENLKTLRLRLRRCHRFLPCENKSKAVEQVKNAFNKLQEKGIYKAMSEFDIFINYIEAYMTMKIRN
In the case of B1, the “amount of Bet v 1 needed to induce the same amount of degranulation (half the release of b-hexosaminidase) vs Bet v 1 only” value in series [2] is recorded as “higher”.

These data come from patent publication US20220193185A1, “COMBINATION OF SYNTHETIC PEPTIDES WITH AFFINITY TO THE TGF-ß RECEPTOR AND WITH AFFINITY TO THE IL-10 RECEPTOR, PHARMACEUTICAL COMPOSITION AND THEIR USE AS IMMUNOMODULATORS IN THE TREATMENT OF AUTOIMMUNE, INFLAMMATORY OR ALLERGIC DISEASES” (Universidade Federal de Uberlândia, priority 2019, published 2022).
